# The source made the active and inactive calls. No rule for the calls is given here.
# Test system: CCRIS mutagenicity, Ames/micronucleus/aberration tests
# Assay: CCRIS mutagenicity studies
# [1] = Test System: AMES SALMONELLA TYPHIMURIUM, Strain/Indicator: TA100, Metabolic Activation: NONE, Method: STANDARD PLATE
# [2] = Test System: AMES SALMONELLA TYPHIMURIUM, Strain/Indicator: TA98, Metabolic Activation: NONE, Method: STANDARD PLATE
# [3] = Test System: AMES SALMONELLA TYPHIMURIUM, Strain/Indicator: TA1535, Metabolic Activation: NONE, Method: STANDARD PLATE
# [4] = Test System: AMES SALMONELLA TYPHIMURIUM, Strain/Indicator: TA1537, Metabolic Activation: NONE, Method: STANDARD PLATE
structure (smiles),measurement,setting,value
NC(Cc1ccc(Cl)cc1)C(=O)O (stereo not given),mutagenic call,"Test System: AMES SALMONELLA TYPHIMURIUM, Strain/Indicator: TA98, Metabolic Activation: NONE",inactive; negative
same,mutagenic call,"Test System: AMES SALMONELLA TYPHIMURIUM, Strain/Indicator: TA100, Metabolic Activation: NONE",inactive; negative
same,mutagenic call,"Test System: AMES SALMONELLA TYPHIMURIUM, Strain/Indicator: TA1535, Metabolic Activation: NONE",inactive; negative
same,mutagenic call,"Test System: AMES SALMONELLA TYPHIMURIUM, Strain/Indicator: TA1537, Metabolic Activation: NONE",inactive; negative
same,mutagenic call,"Test System: B. SUBTILIS, Strain/Indicator: BD190 REC, Metabolic Activation: NONE, Method: SPOT TEST",inactive; negative
same,mutagenic call,"Test System: E.COLI, Strain/Indicator: WP6 POLA, Metabolic Activation: NONE, Method: SPOT TEST",inactive; negative
CC(=O)Nc1cccc(N)c1C(=O)O,mutagenic call,"Test System: AMES SALMONELLA TYPHIMURIUM, Strain/Indicator: TA98, Metabolic Activation: NONE, Method: PREINCUBATION",inactive; negative
same,mutagenic call,"Test System: AMES SALMONELLA TYPHIMURIUM, Strain/Indicator: TA98, Metabolic Activation: RAT, LIVER, S-9, PHENOBARBITAL AND 5,6-BENZOFLAVONE, Method: PREINCUBATION",active; positive
same,mutagenic call,"Test System: AMES SALMONELLA TYPHIMURIUM, Strain/Indicator: TA100, Metabolic Activation: NONE, Method: PREINCUBATION",inactive; negative
same,mutagenic call,"Test System: AMES SALMONELLA TYPHIMURIUM, Strain/Indicator: TA100, Metabolic Activation: RAT, LIVER, S-9, PHENOBARBITAL AND 5,6-BENZOFLAVONE, Method: PREINCUBATION",inactive; negative
CC(=O)ON(C(C)=O)c1ccc(/C=C\c2ccccc2)cc1,mutagenic call,"Test System: UDS HUMAN CELLS, Strain/Indicator: THY INCORP (NON-S-PHASE), Metabolic Activation: NONE, Method: LIQUID SCINTILLATION COUNTING",active; positive
same,mutagenic call,"Test System: UDS HUMAN FIBROBLASTS, Strain/Indicator: THY INCORP (NON-S-PHASE), Metabolic Activation: NONE, Method: AUTORADIOGRAPHY",active; positive
CCCCOS(=O)(=O)c1ccccc1,mutagenic call,"End Point: IN VITRO MICRONUCLEUS, Test System: MOUSE LYMPHOMA L5178Y CELLS, Metabolic Activation: NONE",inactive; negative
same,mutagenic call,"End Point: IN VITRO MICRONUCLEUS, Test System: MOUSE LYMPHOMA L5178Y CELLS, Metabolic Activation: RAT, LIVER, S-9",inactive; negative
same,mutagenic call,"End Point: In vitro micronucleus, Test System: Chinese Hamster Ovary (CHO-WBL) cells, Metabolic Activation: None",active; positive (p<0.01)
same,mutagenic call,[1],active; positive
same,mutagenic call,"Test System: AMES SALMONELLA TYPHIMURIUM, Strain/Indicator: TA100, Metabolic Activation: RAT, LIVER, S-9, Method: STANDARD PLATE",active; positive
O=c1oc2cc(O)ccc2c2oc3cc(O)ccc3c12,mutagenic call,"End Point: IN VITRO CHROMOSOMAL ABERRATIONS, Test System: HUMAN PERIPHERAL LYMPHOCYTES, Metabolic Activation: NONE",active; positive (structural changes)
same,mutagenic call,"Test System: AMES SALMONELLA TYPHIMURIUM, Strain/Indicator: TA98, Metabolic Activation: HAMSTER, LIVER, S-9, AROCLOR 1254, Method: STANDARD PLATE",inactive; negative
same,mutagenic call,[2],inactive; negative
same,mutagenic call,"Test System: AMES SALMONELLA TYPHIMURIUM, Strain/Indicator: TA98, Metabolic Activation: RAT, LIVER, S-9, AROCLOR 1254, Method: STANDARD PLATE",inactive; negative
same,mutagenic call,"Test System: AMES SALMONELLA TYPHIMURIUM, Strain/Indicator: TA100, Metabolic Activation: HAMSTER, LIVER, S-9, AROCLOR 1254, Method: STANDARD PLATE",inactive; negative
same,mutagenic call,[1],inactive; negative
same,mutagenic call,"Test System: AMES SALMONELLA TYPHIMURIUM, Strain/Indicator: TA100, Metabolic Activation: RAT, LIVER, S-9, AROCLOR 1254, Method: STANDARD PLATE",inactive; negative
same,mutagenic call,"Test System: AMES SALMONELLA TYPHIMURIUM, Strain/Indicator: TA1535, Metabolic Activation: HAMSTER, LIVER, S-9, AROCLOR 1254, Method: STANDARD PLATE",inactive; negative
same,mutagenic call,[3],inactive; negative
same,mutagenic call,"Test System: AMES SALMONELLA TYPHIMURIUM, Strain/Indicator: TA1535, Metabolic Activation: RAT, LIVER, S-9, AROCLOR 1254, Method: STANDARD PLATE",inactive; negative
same,mutagenic call,"Test System: AMES SALMONELLA TYPHIMURIUM, Strain/Indicator: TA1537, Metabolic Activation: HAMSTER, LIVER, S-9, AROCLOR 1254, Method: STANDARD PLATE",inactive; negative
same,mutagenic call,[4],inactive; negative
same,mutagenic call,"Test System: AMES SALMONELLA TYPHIMURIUM, Strain/Indicator: TA1537, Metabolic Activation: RAT, LIVER, S-9, AROCLOR 1254, Method: STANDARD PLATE",inactive; negative
same,mutagenic call,"Test System: AMES SALMONELLA TYPHIMURIUM, Strain/Indicator: TA1538, Metabolic Activation: HAMSTER, LIVER, S-9, AROCLOR 1254, Method: STANDARD PLATE",inactive; negative
same,mutagenic call,"Test System: AMES SALMONELLA TYPHIMURIUM, Strain/Indicator: TA1538, Metabolic Activation: NONE, Method: STANDARD PLATE",inactive; negative
same,mutagenic call,"Test System: AMES SALMONELLA TYPHIMURIUM, Strain/Indicator: TA1538, Metabolic Activation: RAT, LIVER, S-9, AROCLOR 1254, Method: STANDARD PLATE",inactive; negative
same,mutagenic call,"Test System: Ames Salmonella typhimurium, Strain/Indicator: TA102, Metabolic Activation: None, Method: Preincubation",inactive; negative
same,mutagenic call,"Test System: Ames Salmonella typhimurium, Strain/Indicator: TA102, Metabolic Activation: Rat, Liver, S-9, Aroclor 1254 in 0.154 M KCl, Method: Preincubation",inactive; negative
same,mutagenic call,"Test System: CHINESE HAMSTER LUNG CELLS, Strain/Indicator: V-79 (HPRT)/6-THIOGUANINE, Metabolic Activation: NONE",active; positive
same,mutagenic call,"Test System: HUMAN LYMPHOBLASTOID CELLS, Strain/Indicator: AHH-1 CELLS(TK+/TK-), Metabolic Activation: NONE, Method: SUSPENSION/PLATE",active; positive
same,mutagenic call,"Test System: SYRIAN HAMSTER EMBRYO CELLS, Strain/Indicator: HPRT/6-THIOGUANINE, Metabolic Activation: NONE, Method: PLATE",active; positive
N#Cc1cc(I)c(O)c([N+](=O)[O-])c1,mutagenic call,"End Point: In vivo chromosomal aberrations, Test System: Bone marrow cells, Species: Mouse, Strain/Sex: Swiss/Male, Route: Intraperitoneal",active; positive (structural changes)
same,mutagenic call,[2],inactive; negative
same,mutagenic call,"Test System: AMES SALMONELLA TYPHIMURIUM, Strain/Indicator: TA98, Metabolic Activation: RAT, LIVER, S-9, KANECHLOR 400, Method: STANDARD PLATE",inactive; negative
same,mutagenic call,[1],inactive; negative
same,mutagenic call,"Test System: AMES SALMONELLA TYPHIMURIUM, Strain/Indicator: TA100, Metabolic Activation: RAT, LIVER, S-9, KANECHLOR 400, Method: STANDARD PLATE",inactive; negative
same,mutagenic call,[3],inactive; negative
same,mutagenic call,"Test System: AMES SALMONELLA TYPHIMURIUM, Strain/Indicator: TA1535, Metabolic Activation: RAT, LIVER, S-9, KANECHLOR 400, Method: STANDARD PLATE",inactive; negative
same,mutagenic call,[4],inactive; negative
same,mutagenic call,"Test System: AMES SALMONELLA TYPHIMURIUM, Strain/Indicator: TA1537, Metabolic Activation: RAT, LIVER, S-9, KANECHLOR 400, Method: STANDARD PLATE",inactive; negative
same,mutagenic call,"Test System: AMES SALMONELLA TYPHIMURIUM, Strain/Indicator: TA1538, Metabolic Activation: RAT, LIVER, S-9, KANECHLOR 400, Method: STANDARD PLATE",inactive; negative
CC(=O)OCc1ccc(N=Nc2ccc(N(C)C)cc2)cc1,mutagenic call,"Test System: AMES SALMONELLA TYPHIMURIUM, Strain/Indicator: TA98, Metabolic Activation: RAT, LIVER, S-9, POLYCHLORINATED BIPHENYLS, Method: PREINCUBATION",active; positive
same,mutagenic call,"Test System: AMES SALMONELLA TYPHIMURIUM, Strain/Indicator: TA100, Metabolic Activation: RAT, LIVER, S-9, POLYCHLORINATED BIPHENYLS, Method: PREINCUBATION",active; positive

# Source: PubChem BioAssay AID1259407 (Chemical Carcinogenesis Research Information System (CCRIS), 2018)
